Test results as given in patent US20030211457A1, “Methods and kits for testing mutagenicity” (Transgenomic, Inc., priority 2002, published 2003).
“And” between values parts separate entries of the source, which are not always exact repeats. Identical values can stand only once. Like-named read-outs stand apart in the source and are kept apart here.

Key:
TA 1535 [1] = conditions: TA1535; azide levels 0.08, 0.2, 0.66, 2.0 and 6 ug; 1.5 hours at 37° C. then 18 hrs selective enrichment; no heteroduplex in vehicle control
Procedure: Reactions were performed in sterile 1.5 ml microfuge tubes. Each tube contained: In a first stage incubation, 1 ul of overnight culture of TA 1535; 6.5 ul LB; 15 ul H2O (or S9); 67.5 ul M9 (−histidine+biotin). These four components are added from a master mix to the microfuge tubes. […] The mixture was incubated 1.5 hours at 37° C. The lids of the tubes were closed, but ventilated by piercing with a needle, for aeration. In a second stage incubation, 800 ul of Selective Enrichment Media was added, and the mixture is incubated for 18 hrs without shaking.
Selective Enrichment Media was prepared in a final volume of 900 ml as follows:
The media was autoclaved and cooled to room temperature. 90 ml of autoclaved 20% glucose was added. Prior to use, Biotin (Sigma) was added from a 400× stock (1.25M) to a final concentration of 1×.
A 1 ul aliquot was used in a “Hot start” PCR amplification with a final denaturation/renaturation step followed by analysis by DHPLC. Each dose was processed in quadruplicate.
For TA1535, the following 342 bp amplicon from the hisG gene was prepared:
In the PCR, the forward primer was [sequence] (SEQ ID NO: 2) and the reverse primer was [sequence] (SEQ ID NO: 3). The DNA polymerase was Optimase™ polymerase. The PCR conditions were as follows: […]

TA 1535 [2] = conditions: TA1535, 1.5-hour exposure, plates incubated 2 days at 37° C., two columns of counts
Procedure: For comparative purposes, Ames modified plate assay were performed. […] After the 1.5-hour exposure, the incubation was add to 2 ml of melted top agar, containing limited histidine and biotin, equilibrated to 50° C. (MOLTOX catalog no. 26-503) and plated on minimal plates lacking histidine (MOLTOX catalog no.21-400). The plates were incubated 2 days at 37° C. and revertant colonies counted as shown:

[N-]=[N+]=[N-] [sodium azide]
DNA back-mutation at the hot spot (heteroduplex by DHPLC) (TA 1535 [1]): caused DNA back-mutation at the hot spot | no. revertant colonies (TA 1535 [2]; NaN3 exposure amount 0.08 ug): 3 and 5 | no. revertant colonies (TA 1535 [2]; NaN3 exposure amount 0.2 ug): 13 | no. revertant colonies (TA 1535 [2]; NaN3 exposure amount 0.6 ug): 15 and 27 | no. revertant colonies (TA 1535 [2]; NaN3 exposure amount 2 ug): 39 and 66 | no. revertant colonies (TA 1535 [2]; NaN3 exposure amount 6 ug): >100
